PMC7026418, “The kinase polypharmacology landscape of clinical PARP inhibitors” (Scientific Reports, 2020)
Where two headings read alike, the source gives them in different places.

Key:
Assay in all cases: biochemical
Set-up in all cases: DiscoveRx KINOMEscan active site-directed competition binding; percent of control kinase bound to immobilised ligand
[1] = biological target: GSK3B (Homo sapiens, UniProt P49841)
[2] = biological target: HCK (Homo sapiens, UniProt P08631)
[3] = biological target: T1, LATS2 (Homo sapiens, UniProt Q9NRM7)
T1 sequence (Q9NRM7 1-1088): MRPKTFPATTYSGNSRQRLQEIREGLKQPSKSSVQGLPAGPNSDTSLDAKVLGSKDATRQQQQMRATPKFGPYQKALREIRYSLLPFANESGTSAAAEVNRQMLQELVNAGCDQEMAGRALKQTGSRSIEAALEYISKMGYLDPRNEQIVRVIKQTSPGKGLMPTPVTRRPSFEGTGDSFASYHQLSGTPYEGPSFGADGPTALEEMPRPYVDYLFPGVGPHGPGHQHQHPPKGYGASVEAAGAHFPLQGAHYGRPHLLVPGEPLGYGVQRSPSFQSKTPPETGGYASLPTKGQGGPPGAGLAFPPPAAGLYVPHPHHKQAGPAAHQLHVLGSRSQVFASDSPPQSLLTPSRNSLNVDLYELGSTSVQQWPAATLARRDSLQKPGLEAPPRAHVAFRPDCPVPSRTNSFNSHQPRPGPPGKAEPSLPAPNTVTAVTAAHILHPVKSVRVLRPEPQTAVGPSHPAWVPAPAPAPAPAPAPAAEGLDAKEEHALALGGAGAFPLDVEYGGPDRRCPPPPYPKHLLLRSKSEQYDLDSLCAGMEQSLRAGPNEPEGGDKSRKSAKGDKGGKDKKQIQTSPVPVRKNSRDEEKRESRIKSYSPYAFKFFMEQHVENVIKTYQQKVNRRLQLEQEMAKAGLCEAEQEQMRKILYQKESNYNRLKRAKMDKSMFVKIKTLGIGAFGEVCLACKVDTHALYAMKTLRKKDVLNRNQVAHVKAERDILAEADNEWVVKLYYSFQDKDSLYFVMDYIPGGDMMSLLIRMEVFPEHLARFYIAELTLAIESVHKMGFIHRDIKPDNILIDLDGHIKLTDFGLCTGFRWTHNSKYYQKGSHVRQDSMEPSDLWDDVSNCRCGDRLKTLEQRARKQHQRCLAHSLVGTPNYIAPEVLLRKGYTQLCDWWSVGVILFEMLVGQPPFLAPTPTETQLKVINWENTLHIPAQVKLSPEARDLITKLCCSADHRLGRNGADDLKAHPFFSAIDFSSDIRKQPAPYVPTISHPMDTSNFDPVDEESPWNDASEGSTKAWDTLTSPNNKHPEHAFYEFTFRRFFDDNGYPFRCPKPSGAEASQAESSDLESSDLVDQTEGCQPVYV

[4] = biological target: PIK3CB (Homo sapiens, UniProt P42338)
Sequence of PIK3CB (P42338 whole entry): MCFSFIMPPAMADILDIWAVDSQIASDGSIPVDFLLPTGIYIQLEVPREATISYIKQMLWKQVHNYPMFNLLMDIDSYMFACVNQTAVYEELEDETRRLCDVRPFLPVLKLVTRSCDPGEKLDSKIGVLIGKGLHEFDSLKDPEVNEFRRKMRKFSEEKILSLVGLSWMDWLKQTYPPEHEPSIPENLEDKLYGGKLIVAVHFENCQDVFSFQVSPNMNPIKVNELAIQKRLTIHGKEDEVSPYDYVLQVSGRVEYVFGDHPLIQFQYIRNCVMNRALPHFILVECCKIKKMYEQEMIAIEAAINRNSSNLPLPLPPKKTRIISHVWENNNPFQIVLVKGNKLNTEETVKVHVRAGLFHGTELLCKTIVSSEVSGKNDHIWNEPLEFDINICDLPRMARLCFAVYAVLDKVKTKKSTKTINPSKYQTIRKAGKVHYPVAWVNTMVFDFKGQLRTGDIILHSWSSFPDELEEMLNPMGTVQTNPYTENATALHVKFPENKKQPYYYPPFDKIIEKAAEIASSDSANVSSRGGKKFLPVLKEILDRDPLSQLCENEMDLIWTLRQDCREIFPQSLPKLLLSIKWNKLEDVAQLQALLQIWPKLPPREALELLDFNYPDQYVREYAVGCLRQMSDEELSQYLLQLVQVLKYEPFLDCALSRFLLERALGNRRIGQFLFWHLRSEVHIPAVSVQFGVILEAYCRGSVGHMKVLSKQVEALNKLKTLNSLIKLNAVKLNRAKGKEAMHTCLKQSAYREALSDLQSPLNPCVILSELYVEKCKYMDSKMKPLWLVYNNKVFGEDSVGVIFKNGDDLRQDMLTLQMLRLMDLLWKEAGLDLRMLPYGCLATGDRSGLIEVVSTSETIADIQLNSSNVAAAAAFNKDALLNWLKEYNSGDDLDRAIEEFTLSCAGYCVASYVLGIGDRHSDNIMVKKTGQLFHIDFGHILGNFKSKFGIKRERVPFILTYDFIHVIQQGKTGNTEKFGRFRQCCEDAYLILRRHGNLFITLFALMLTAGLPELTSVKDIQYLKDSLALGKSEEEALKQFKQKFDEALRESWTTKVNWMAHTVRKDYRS

[5] = biological target: ROCK1 (Homo sapiens, UniProt Q13464)
Sequence of ROCK1 (Q13464 whole entry): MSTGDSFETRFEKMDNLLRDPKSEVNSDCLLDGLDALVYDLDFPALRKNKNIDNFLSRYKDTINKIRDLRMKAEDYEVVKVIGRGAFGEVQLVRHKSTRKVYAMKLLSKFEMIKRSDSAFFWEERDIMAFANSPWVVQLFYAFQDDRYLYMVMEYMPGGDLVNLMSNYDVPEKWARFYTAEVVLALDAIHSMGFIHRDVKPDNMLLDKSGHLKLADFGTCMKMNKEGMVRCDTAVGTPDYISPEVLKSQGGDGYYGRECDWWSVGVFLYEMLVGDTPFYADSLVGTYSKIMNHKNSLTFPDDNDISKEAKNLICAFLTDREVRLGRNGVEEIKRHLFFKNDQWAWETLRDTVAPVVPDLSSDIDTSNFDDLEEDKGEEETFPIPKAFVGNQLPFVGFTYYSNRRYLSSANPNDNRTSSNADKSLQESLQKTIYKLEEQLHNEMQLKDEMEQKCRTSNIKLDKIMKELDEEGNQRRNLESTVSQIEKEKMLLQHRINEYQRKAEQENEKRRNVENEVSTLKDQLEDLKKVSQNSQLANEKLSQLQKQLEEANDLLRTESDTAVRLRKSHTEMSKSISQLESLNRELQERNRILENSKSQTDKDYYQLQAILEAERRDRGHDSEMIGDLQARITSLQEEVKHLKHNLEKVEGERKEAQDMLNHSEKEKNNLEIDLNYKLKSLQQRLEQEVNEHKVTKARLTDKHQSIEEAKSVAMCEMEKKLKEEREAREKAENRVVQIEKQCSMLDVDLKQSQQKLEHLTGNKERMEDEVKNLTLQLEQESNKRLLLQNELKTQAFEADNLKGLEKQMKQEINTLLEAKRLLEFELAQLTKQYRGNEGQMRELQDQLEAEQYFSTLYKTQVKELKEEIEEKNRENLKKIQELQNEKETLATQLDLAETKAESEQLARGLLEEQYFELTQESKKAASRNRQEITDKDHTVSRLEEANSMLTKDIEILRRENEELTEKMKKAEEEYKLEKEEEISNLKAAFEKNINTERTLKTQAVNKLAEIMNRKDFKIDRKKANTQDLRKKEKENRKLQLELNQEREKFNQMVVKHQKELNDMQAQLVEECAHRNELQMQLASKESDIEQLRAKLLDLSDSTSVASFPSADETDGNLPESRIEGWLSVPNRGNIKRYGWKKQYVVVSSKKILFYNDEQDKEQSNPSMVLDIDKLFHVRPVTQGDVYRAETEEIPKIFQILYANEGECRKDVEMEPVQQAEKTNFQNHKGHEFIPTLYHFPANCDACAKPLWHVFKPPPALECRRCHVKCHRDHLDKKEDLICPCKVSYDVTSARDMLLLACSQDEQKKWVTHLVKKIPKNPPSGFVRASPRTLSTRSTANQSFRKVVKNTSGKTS

[6] = biological target: T2, TBK1 (Homo sapiens, UniProt Q9UHD2)
T2 sequence (Q9UHD2 1-729): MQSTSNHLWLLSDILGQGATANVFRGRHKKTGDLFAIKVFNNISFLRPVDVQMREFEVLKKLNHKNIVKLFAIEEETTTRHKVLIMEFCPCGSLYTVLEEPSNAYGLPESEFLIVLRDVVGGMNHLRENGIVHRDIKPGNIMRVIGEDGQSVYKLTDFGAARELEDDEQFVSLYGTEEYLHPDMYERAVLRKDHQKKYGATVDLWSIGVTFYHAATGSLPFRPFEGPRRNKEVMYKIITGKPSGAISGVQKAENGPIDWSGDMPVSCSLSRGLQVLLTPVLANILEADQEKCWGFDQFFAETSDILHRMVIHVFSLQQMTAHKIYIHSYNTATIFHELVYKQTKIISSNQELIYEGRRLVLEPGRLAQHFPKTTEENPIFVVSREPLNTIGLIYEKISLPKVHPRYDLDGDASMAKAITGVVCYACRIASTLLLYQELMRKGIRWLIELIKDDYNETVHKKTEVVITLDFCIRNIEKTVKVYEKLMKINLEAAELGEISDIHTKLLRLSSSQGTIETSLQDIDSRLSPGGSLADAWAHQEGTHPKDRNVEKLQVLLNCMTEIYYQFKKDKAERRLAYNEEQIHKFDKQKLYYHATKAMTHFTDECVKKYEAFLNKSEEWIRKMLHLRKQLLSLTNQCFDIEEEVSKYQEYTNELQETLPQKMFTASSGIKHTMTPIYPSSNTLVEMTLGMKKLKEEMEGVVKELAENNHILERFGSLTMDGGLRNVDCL

[7] = biological target: T3, ZAP70 (Homo sapiens, UniProt P43403)
T3 sequence (P43403 1-619): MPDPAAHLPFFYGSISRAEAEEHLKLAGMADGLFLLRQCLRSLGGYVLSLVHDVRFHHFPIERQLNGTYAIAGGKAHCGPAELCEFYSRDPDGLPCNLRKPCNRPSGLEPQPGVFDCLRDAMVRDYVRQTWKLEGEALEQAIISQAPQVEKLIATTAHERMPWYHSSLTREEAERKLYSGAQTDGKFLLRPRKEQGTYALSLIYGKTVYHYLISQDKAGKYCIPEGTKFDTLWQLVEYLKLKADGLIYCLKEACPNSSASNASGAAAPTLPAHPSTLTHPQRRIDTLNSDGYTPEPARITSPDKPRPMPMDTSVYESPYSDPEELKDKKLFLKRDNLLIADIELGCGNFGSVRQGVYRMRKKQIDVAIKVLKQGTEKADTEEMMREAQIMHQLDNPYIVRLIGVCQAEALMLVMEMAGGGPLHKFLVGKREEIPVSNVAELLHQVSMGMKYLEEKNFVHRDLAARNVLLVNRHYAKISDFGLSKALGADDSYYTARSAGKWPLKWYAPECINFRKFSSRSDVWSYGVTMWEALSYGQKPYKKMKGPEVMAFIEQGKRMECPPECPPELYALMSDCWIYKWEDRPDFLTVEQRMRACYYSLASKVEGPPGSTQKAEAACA

[8] = read-out: Talazoparib (BMN 673) / %Ctrl @ 10000nM
[9] = read-out: Olaparib / %Ctrl @ 10000nM
[10] = read-out: Rucaparib / %Ctrl @ 10000nM, binding competition, % of control
[11] = read-out: Niraparib (MK-4827) / %Ctrl @ 10000nM

Sequence of GSK3B (P49841 whole entry): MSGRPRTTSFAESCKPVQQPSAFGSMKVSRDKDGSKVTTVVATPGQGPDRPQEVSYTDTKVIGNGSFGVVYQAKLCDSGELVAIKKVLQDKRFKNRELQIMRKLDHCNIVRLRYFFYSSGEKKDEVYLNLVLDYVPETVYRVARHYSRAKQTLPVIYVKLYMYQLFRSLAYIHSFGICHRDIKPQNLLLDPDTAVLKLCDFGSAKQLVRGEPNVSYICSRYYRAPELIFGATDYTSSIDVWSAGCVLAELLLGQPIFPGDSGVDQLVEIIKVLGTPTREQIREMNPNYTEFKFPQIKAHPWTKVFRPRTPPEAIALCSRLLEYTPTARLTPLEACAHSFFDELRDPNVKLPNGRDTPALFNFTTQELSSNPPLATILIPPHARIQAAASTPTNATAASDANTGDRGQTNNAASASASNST
Sequence of HCK (P08631 whole entry): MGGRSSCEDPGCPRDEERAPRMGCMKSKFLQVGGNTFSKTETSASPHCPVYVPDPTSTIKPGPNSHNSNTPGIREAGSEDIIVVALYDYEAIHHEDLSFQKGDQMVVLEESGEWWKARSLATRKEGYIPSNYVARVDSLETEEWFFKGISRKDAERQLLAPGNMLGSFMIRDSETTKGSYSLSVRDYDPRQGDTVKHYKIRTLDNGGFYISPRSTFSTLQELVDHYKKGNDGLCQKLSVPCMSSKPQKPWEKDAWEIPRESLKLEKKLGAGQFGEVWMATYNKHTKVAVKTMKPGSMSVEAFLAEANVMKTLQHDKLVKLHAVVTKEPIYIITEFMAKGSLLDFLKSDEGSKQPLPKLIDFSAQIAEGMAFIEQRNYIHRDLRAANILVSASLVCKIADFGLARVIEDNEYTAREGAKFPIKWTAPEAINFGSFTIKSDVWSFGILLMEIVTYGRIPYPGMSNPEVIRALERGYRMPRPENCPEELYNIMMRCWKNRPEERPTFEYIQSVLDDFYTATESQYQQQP

Cn1ncnc1[C@H]1c2n[nH]c(=O)c3cc(F)cc(c23)N[C@@H]1c1ccc(F)cc1 [Talazoparib]
percent of control binding at 10 µM [1, 8]: 100% | percent of control binding at 10 µM [2, 8]: 86% | percent of control binding at 10 µM [3, 8]: 82% | percent of control binding at 10 µM [4, 8]: 100% | percent of control binding at 10 µM [5, 8]: 100% | percent of control binding at 10 µM [6, 8]: 44% | percent of control binding at 10 µM [7, 8]: 100%

O=C(c1cc(Cc2n[nH]c(=O)c3ccccc23)ccc1F)N1CCN(C(=O)C2CC2)CC1 [Olaparib]
percent of control binding at 10 µM [1, 9]: 98% | percent of control binding at 10 µM [2, 9]: 96% | percent of control binding at 10 µM [3, 9]: 77% | percent of control binding at 10 µM [4, 9]: 90% | percent of control binding at 10 µM [5, 9]: 97% | percent of control binding at 10 µM [6, 9]: 91% | percent of control binding at 10 µM [7, 9]: 93%

CNCc1ccc(-c2[nH]c3cc(F)cc4c3c2CCNC4=O)cc1 [Rucaparib]
percent of control binding at 10 µM [1, 10]: 89% | percent of control binding at 10 µM [2, 10]: 74% | percent of control binding at 10 µM [3, 10]: 48% | percent of control binding at 10 µM [4, 10]: 83% | percent of control binding at 10 µM [5, 10]: 85% | percent of control binding at 10 µM [6, 10]: 87% | percent of control binding at 10 µM [7, 10]: 80%

NC(=O)c1cccc2cn(-c3ccc([C@@H]4CCCNC4)cc3)nc12 [Niraparib]
percent of control binding at 10 µM [1, 11]: 88% | percent of control binding at 10 µM [2, 11]: 70% | percent of control binding at 10 µM [3, 11]: 4.2% | percent of control binding at 10 µM [4, 11]: 100% | percent of control binding at 10 µM [5, 11]: 61% | percent of control binding at 10 µM [6, 11]: 75% | percent of control binding at 10 µM [7, 11]: 100%
